The assay addresses truncated Polθ protein (Polθ-Hel containing the helicase domain (67-894)) (Homo sapiens (Human), UniProt O75417). The experiment in a line: Polθ ATPase assay (Biological Assay 1, ADP-Glo luminescence). The assay is classed as biochemical. As to conditions: Polθ-Hel 0.5 nM, DNA substrate 500 nM, ATP 60 μM, 23° C.; read-out: Pole ATPase assay IC50. Here is the method:
The Polθ ATPase assay was used to evaluate inhibitors of Polθ ATPase activity, in vitro. Experiments were performed using a truncated Polθ protein (Polθ-Hel containing the helicase domain (67-894), ATP and a DNA single strand Oligo (5′-CTGTCCTGCATGATG-3′) in the Polθ assay buffer (20 mM Tis-HCl (pH 8.8), MgCl2 5 mM, tween20 0.01%, NP40 0.01%, BSA 0.01%, DTT 1 mM). 2 μL of assay buffer containing Pole-Hel protein (0.5 nM) and DNA substrate (500 nM) was transferred into assay ready plates, containing 0.04 μL of compounds diluted in DMSO. After a 30 minutes incubation at 23° C. in the dark, the reaction was triggered by adding 2 μL of ATP (60 μM), in assay buffer. After 60 minutes at 23° C., 4 μl of ADP-Glo™ Reagent (Glo 1) was added followed by 40 minutes of incubation, then 8 μl of ADP-Glom kinase Detection Reagent (Glo 2) followed by 60 minutes of incubation at 23° C. Luminescence was then measured using Tecan F200 infinite plate reader. Raw data were analysed using GeneData to generate IC50 values.
The Polθ ATPase assay described in Biological Assay 1 above was used to evaluate inhibitors of Polθ ATPase activity for the compounds described in the Experimental Part B above, in vitro.
For orientation: ADP-Glo turns the ADP formed in a reaction into a luminescent signal.

Each structure is given as a SMILES string.

Chain of truncated Polθ protein (Polθ-Hel containing the helicase domain (67-894)) (O75417 67-894): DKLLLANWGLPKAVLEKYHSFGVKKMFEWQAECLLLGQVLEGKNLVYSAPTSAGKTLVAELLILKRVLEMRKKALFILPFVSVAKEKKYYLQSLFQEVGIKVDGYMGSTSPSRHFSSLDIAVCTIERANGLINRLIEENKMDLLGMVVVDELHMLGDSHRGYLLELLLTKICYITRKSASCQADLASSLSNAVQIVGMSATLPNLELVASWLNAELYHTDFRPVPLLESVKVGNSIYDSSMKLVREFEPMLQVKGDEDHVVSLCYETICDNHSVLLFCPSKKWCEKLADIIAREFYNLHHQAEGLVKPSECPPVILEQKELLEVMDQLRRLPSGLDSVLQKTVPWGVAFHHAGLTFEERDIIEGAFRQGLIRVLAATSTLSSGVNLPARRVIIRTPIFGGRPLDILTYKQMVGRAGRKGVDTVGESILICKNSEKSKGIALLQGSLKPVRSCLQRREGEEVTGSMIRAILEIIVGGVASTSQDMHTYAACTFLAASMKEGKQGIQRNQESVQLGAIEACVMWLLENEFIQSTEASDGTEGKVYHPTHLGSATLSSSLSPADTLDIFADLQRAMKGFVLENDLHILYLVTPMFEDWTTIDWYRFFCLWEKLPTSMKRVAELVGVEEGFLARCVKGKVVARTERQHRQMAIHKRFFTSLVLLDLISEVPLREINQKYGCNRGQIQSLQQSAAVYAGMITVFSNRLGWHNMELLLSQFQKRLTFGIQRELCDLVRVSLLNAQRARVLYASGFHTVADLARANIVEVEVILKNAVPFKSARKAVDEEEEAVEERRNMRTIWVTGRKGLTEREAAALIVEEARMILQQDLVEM

By IC50 is commonly meant the concentration at which inhibition is half-maximal. For the molecule `COc1cnc(Cl)cc1-c1cc(C)ncc1C(=O)Nc1nc2cnccc2s1` [Example 62, 2′-chloro-5′-methoxy-6-methyl-N-{[1,3]thiazolo[4,5-c]pyridin-2-yl}-[4,4′-bipyridine]-3-carboxamide], the IC50 was under 100 nM.
On to `COc1cnc(Cl)cc1-c1cc(C)ncc1C(=O)Nc1nc2cc(Cl)ncc2s1` [Example 63, 2′-chloro-N-{6-chloro-[1,3]thiazolo[5,4-c]pyridin-2-yl}-5′-methoxy-6-methyl-[4,4′-bipyridine]-3-carboxamide], for which the IC50 is under 100 nM.
Consider `COc1cnc(Cl)cc1-c1cc(C)ncc1C(=O)Nc1nc2cnc(Cl)cc2s1` [Example 64, 2′-chloro-N-{6-chloro-[1,3]thiazolo[4,5-c]pyridin-2-yl}-5′-methoxy-6-methyl-[4,4′-bipyridine]-3-carboxamide], for which the IC50 was under 100 nM.
The figure for `COc1cnc(Cl)cc1-c1cc(C)ncc1C(=O)Nc1nc2cnc(N3CCOCC3)cc2s1` [Example 65, 2′-chloro-5′-methoxy-6-methyl-N-[6-(morpholin-4-yl)-[1,3]thiazolo[4,5-c]pyridin-2-yl]-[4,4′-bipyridine]-3-carboxamide] is under 100 nM; for `COc1cnc(Cl)cc1-c1cc(C)ncc1C(=O)Nc1nc2ccc(S(=O)(=O)N(C)C)cc2s1` [Example 66, 2′-chloro-N-[6-(dimethylsulfamoyl)-1,3-benzothiazol-2-yl]-5′-methoxy-6-methyl-[4,4′-bipyridine]-3-carboxamide] it is under 100 nM.
In the case of `COc1cnc(Cl)cc1-c1cc(C)ncc1C(=O)Nc1nc2ncc(N3CCOCC3)cc2s1` [Example 67, 2′-chloro-5′-methoxy-6-methyl-N-[6-(morpholin-4-yl)-[1,3]thiazolo[4,5-b]pyridin-2-yl]-[4,4′-bipyridine]-3-carboxamide] it was under 100 nM.
Consider `COc1cnc(Cl)cc1-c1cc(C)ncc1C(=O)Nc1nc2ccccc2s1` [Example 69, N-(1,3-benzothiazol-2-yl)-2′-chloro-5′-methoxy-6-methyl-[4,4′-bipyridine]-3-carboxamide], for which the IC50 was under 100 nM.
As to `COc1cnc(Cl)cc1-c1cc(C)ncc1C(=O)Nc1nc2ncc(N3CCCCC3=O)cc2s1` [Example 70], the IC50 was under 100 nM.
In the case of `COc1cnc(Cl)cc1-c1cc(C)ncc1C(=O)Nc1nc2ncc(N3CCC(O)CC3)cc2s1` [Example 71, 2′-chloro-N-[6-(4-hydroxypiperidin-1-yl)-[1,3]thiazolo[4,5-b]pyridin-2-yl]-5′-methoxy-6-methyl-[4,4′-bipyridine]-3-carboxamide], the IC50 was under 100 nM.
The figure for `COc1cnc(Cl)cc1-c1cc(C)ncc1C(=O)Nc1nc2ccc(N3CCOCC3)nc2s1` [Example 72, 2′-chloro-5′-methoxy-6-methyl-N-[5-(morpholin-4-yl)-[1,3]thiazolo[5,4-b]pyridin-2-yl]-[4,4′-bipyridine]-3-carboxamide] is under 100 nM.
As for `COc1cnc(Cl)cc1-c1cc(C)ncc1C(=O)Nc1nc2ccc(N3CCCCC3=O)nc2s1` [Example 73, 2′-chloro-5′-methoxy-6-methyl-N-[5-(2-oxopiperidin-1-yl)-[1,3]thiazolo[5,4-b]pyridin-2-yl]-[4,4′-bipyridine]-3-carboxamide], the IC50 is under 100 nM.
With `COc1cnc(Cl)cc1-c1cc(C)ncc1C(=O)Nc1nc2ccc(N3CCC(O)CC3)nc2s1` [Example 74, 2′-chloro-N-[5-(4-hydroxypiperidin-1-yl)-[1,3]thiazolo[5,4-b]pyridin-2-yl]-5′-methoxy-6-methyl-[4,4′-bipyridine]-3-carboxamide], the IC50 was under 100 nM.
As for `COc1ncc2nc(NC(=O)c3cnc(C)cc3-c3cc(Cl)ncc3OC)sc2n1` [Example 75, 2′-chloro-5′-methoxy-N-{5-methoxy-[1,3]thiazolo[5,4-d]pyrimidin-2-yl}-6-methyl-[4,4′-bipyridine]-3-carboxamide], the IC50 was under 100 nM.

(Values after patent publication US20240327430A1 (Breakpoint Therapeutics GmbH, priority 2023, published 2024).)
